The data set is described as follows: gradient 5% acetonitrile 3 min, to 50% in 2 min, to 85% in 15 min, held 3 min, 100 µL/min. The conditions noted are these: column: Zorbax Extend-C18 2.1 x 50 mm; eluents: water / acetonitrile, 0.1% formic acid. The procedure, abridged: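 Mixtures of ~100 pure standards were chromatographed on a Zorbax Extend-C18 column (2.1 × 50 mm, 1.8 μm) at 100 μL/min using water and acetonitrile, each with 0.1% formic acid. Detection used a quadrupole time-of-flight mass spectrometer in positive and negative ionization mode, and data collection spanned 3 months. Retention time was obtained from adduct peaks picked computationally and each checked manually.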
With `C[C@@H]1C[C@H]2[C@@H]3C[C@H](F)C4=CC(=O)C(Cl)=C[C@]4(C)[C@@]3(F)[C@@H](O)C[C@]2(C)[C@@]1(O)C(=O)CO`, the RP-LC retention time stood at 847 s.

Turning to `Cc1cc(C)cc(-c2nnc(Cc3nc(-c4cccc(F)c4)no3)o2)c1`, the RP-LC retention time was 1150 s.

`COc1cccc(-c2noc(C3CCCN3C(=O)Nc3ccc4c(c3)OCO4)n2)c1` (centres undefined): the RP-LC retention time was 896 s.

In turn, `O=C(NCCN1CCOCC1)C1CCc2sc(C(=O)N3CCOCC3)cc2C1` (centres undefined) displayed an RP-LC retention time of 561 s.

In the case of `Cc1ccnc(NC(c2cccs2)c2ccc3cccnc3c2O)c1` (centres undefined), the RP-LC retention time was 676 s.

`Cc1ccc(-c2nnc(N3CCC(C(=O)NC4CCCCCC4)CC3)o2)cc1` yielded an RP-LC retention time of 949 s.

Compound `Cc1cc(C(=O)N2CCC(c3cc(N)on3)CC2)c(C)o1` came in with an RP-LC retention time of 667 s.

`CCOc1ccc(-c2[nH]nc3nc(-c4ccc(OC)cc4)cc(C(=O)O)c23)cc1` came in with an RP-LC retention time of 654 s.

As for `Cc1cc(C)n(CC(=O)N2CCCCCC2c2nnc(C)o2)n1` (centres undefined), the RP-LC retention time turned out to be 631 s.

In turn, `COc1ccc(CC(=O)Nc2cccc(-c3cn4cccnc4n3)c2)cc1` came in with an RP-LC retention time of 610 s.

The compound `CCN1CCN(C2CCN(C(=O)c3cccc(Br)c3)CC2)C1=O` had an RP-LC retention time of 720 s.

In turn, `CN(C)CCn1nnc2cc(-c3noc(-c4ccc(F)cc4)n3)ccc21` gave an RP-LC retention time of 651 s.

With `CN1c2cc(C(=O)N3CCN(c4ccccc4)CC3)ccc2C(=O)N2CCCCC21` (centres undefined), the RP-LC retention time turned out to be 823 s.

On to `CC1Cc2ccccc2N1C(=O)CC1CCN(S(=O)(=O)c2ccc3c(c2)oc(=O)n3C)CC1` (centres undefined), for which the RP-LC retention time was found to be 965 s.

As to `CCCCN1C(=O)C(C)(C(=O)N2CCN(c3cccc(C)c3C)CC2)Oc2cccnc21` (centres undefined), the RP-LC retention time came to 1380 s.

As to `Cc1cc(C2CCCN2C(=O)Nc2ccc(C)c(F)c2)no1` (centres undefined), the RP-LC retention time turned out to be 818 s.

Regarding `Cc1ccc(C(O)Cn2ccn3nc(-c4cccs4)cc3c2=O)cc1` (centres undefined), the RP-LC retention time stood at 893 s.

As to `Cn1cc(CN2CCC(C(=O)NCc3ccccc3)CC2)c2cc(Cl)ccc21`, the RP-LC retention time was determined as 714 s.

As for `CN(C(=O)C1CCCN(c2ncnc3c2nc2n3CCCCC2)C1)c1ccccc1` (centres undefined), the RP-LC retention time was 766 s.

The compound `O=C(NC1CCCCCC1)C1CCCN(C(=O)c2ccc(Cl)cc2)C1` (centres undefined) yielded an RP-LC retention time of 904 s.

Consider `CCc1noc([C@@H]2CC(F)(F)CN2C(=O)c2nccn2C)n1`, for which the RP-LC retention time amounted to 744 s.

For the compound `Cc1oc(-c2[nH]ncc2C(=O)N(C)C)cc1S(=O)(=O)Nc1cccc(C(F)(F)F)c1`, the RP-LC retention time was found to be 763 s.

For `CCc1ccccc1NC(=O)Cn1nc2nc(N3CCCC(C)C3)ccn2c1=O` (centres undefined), the RP-LC retention time is 838 s.

In the case of `CCOC(=O)c1ccc(Nc2c(C(=O)N3CCCCC3CC)cnc3nc(C)ccc23)cc1` (centres undefined), the RP-LC retention time was found to be 701 s.

`O=C(NCCN1CCOCC1)c1ccc2c(c1)CCCN2C(=O)c1ccccc1F` displayed an RP-LC retention time of 602 s.

Turning to `Cc1ccc(-c2nc(-c3ccc4nnc(C)n4c3)no2)cc1`, the RP-LC retention time came out at 968 s.

For `O=C(c1cn(-c2ccc(-c3nc(C4CC4)no3)cn2)cn1)N1CCCCC1`, the RP-LC retention time was 864 s.

Compound `CCN(CC)c1nc(C(=O)Nc2ccc(C(C)=O)cc2)nc2nc(C)cc(C)c12` displayed an RP-LC retention time of 679 s.

Compound `COc1cccc(-c2ccnc3nc(C4CCC4)nn23)c1` returned an RP-LC retention time of 868 s.

The compound `Cc1cc(C)cc(NC(=O)CN2C(=O)COc3ccc(C(=O)N4CCCC4)cc32)c1` registered an RP-LC retention time of 773 s.

Regarding `CCc1ccc(NS(=O)(=O)c2cc3n(c2)CCCNC3=O)cc1`, the RP-LC retention time was found to be 691 s.

The compound `Cc1sc(-c2cc(C(F)(F)F)[nH]n2)cc1S(=O)(=O)NCCc1cccs1` registered an RP-LC retention time of 990 s.

The compound `CCn1c(=O)c(NCc2cccc(Cl)c2)nc2ccncc21` showed an RP-LC retention time of 649 s.

Consider `O=C(NCC1CCN(S(=O)(=O)C2CC2)CC1)c1cc(=O)c2ccccc2o1`, for which the RP-LC retention time worked out at 674 s.

Regarding `O=C(Nc1nnc(-c2ccc(Cl)s2)o1)c1ccc2ncsc2c1`, the RP-LC retention time was 733 s.

Regarding `Cc1ccc(C2Cn3nnc(C(=O)N4CCN(C(=O)c5ccco5)CC4)c3CO2)cc1` (centres undefined), the RP-LC retention time came to 844 s.

For the compound `O=C1NC2(CCN(C(=O)Nc3ccccc3Cl)CC2)Oc2ccccc21`, the RP-LC retention time was 765 s.

With `CNC(=O)c1noc([C@@H]2CC(F)(F)CN2C(=O)C2CC=CC2)n1`, the RP-LC retention time was 698 s.

The compound `CCOc1ccc(NC(=O)C2CCCN(c3nnc4cccc(C)n34)C2)cc1` (centres undefined) had an RP-LC retention time of 724 s.

On to `Cc1c(Cl)ccc2c(=O)c3c([nH]c12)CCN(CC(=O)Nc1ccc2c(c1)OCCO2)C3`, for which the RP-LC retention time came to 646 s.

`Cc1cc2[nH]c(C(=O)Nc3cccc(Cl)c3F)c(CN3CCOCC3)c2s1` yielded an RP-LC retention time of 768 s.

`CCCCC(=O)O[C@]1(C(=O)CO)CC[C@H]2[C@@H]3CCC4=CC(=O)CC[C@]4(C)[C@H]3[C@@H](O)C[C@@]21C` yielded an RP-LC retention time of 1020 s.

Consider `CCOc1ccc(CC(=O)N2CCN(c3cc(CC)n4cnnc4n3)CC2)cc1`, for which the RP-LC retention time was 634 s.

In the case of `Cc1ccc(C)c(CNC(=O)C2CCN(c3cnc4nccnc4c3)CC2)c1`, the RP-LC retention time was found to be 722 s.

Compound `Cc1nc(-c2ccncc2)nc2c1CCC(=O)N2C1CCCCC1` had an RP-LC retention time of 851 s.

Turning to `CCCN1C(=O)COc2ccc(-c3csc(NC(=O)c4ccccc4C)n3)cc21`, the RP-LC retention time was 1060 s.

`Cc1nnc2ccc(-c3noc(-c4cccc(F)c4)n3)cn12`: the RP-LC retention time amounted to 881 s.

Regarding `CCc1nc2cc(-c3noc(Cc4ccc(OC)cc4)n3)ccc2o1`, the RP-LC retention time came to 1030 s.

`O=C(Cc1csc2nc(-c3cccc(Br)c3)cn12)Nc1cccc(F)c1` registered an RP-LC retention time of 1010 s.

On to `COc1ccc(-c2nnc(-c3cccnc3N3CCN(c4ccccc4C)CC3)o2)cc1`, for which the RP-LC retention time came out at 1280 s.

As for `Cc1cc(C(=O)NOCCO)c(Nc2ccc(I)cc2F)n(C)c1=O`, the RP-LC retention time was found to be 718 s.

On to `CC(C)N1C(=O)C(C)(C(=O)NCc2ccc(F)cc2)Oc2cccnc21` (centres undefined), for which the RP-LC retention time amounted to 984 s.

For `Cc1ccc(S(=O)(=O)N2CC3CN(C(=O)COc4cccc(C)c4)CC(C2)O3)cc1`, the RP-LC retention time worked out at 928 s.

In turn, `Cc1cc(C(=O)Nc2nnc(SCC(=O)Nc3ccccc3C(F)(F)F)s2)no1` had an RP-LC retention time of 767 s.

Consider `CS(=O)(=O)NC1(CC2CC2)CCN(Cc2cn[nH]c2-c2ccc(F)cc2)CC1`, for which the RP-LC retention time came out at 623 s.

As to `Cc1ccccc1OCc1nc(-c2cccc(-c3ccnn3C)c2)no1`, the RP-LC retention time worked out at 1130 s.

Consider `O=C(NCC1CCCO1)c1csc(N2CCN(c3ccc(F)cc3)CC2)n1` (centres undefined), for which the RP-LC retention time was found to be 902 s.

The compound `O=C(NCc1ccc2c(c1)OCO2)C1CC(=O)N(CCc2c[nH]c3ccc(Cl)cc23)C1` (centres undefined) displayed an RP-LC retention time of 799 s.

The compound `CCn1c(=O)n(CC)c2cc(NC3=C(C(=O)Nc4ccccc4)S(=O)(=O)c4ccccc43)ccc21` registered an RP-LC retention time of 947 s.

As to `Cc1cc(C)cc(-n2c(-c3ccc(Cl)cc3)cn3c4c(=O)n(C)c(=O)n(C)c4nc23)c1`, the RP-LC retention time was found to be 1130 s.

As for `CCn1nnc2cc(-c3noc(C4CC(=O)N(c5cccc(Cl)c5)C4)n3)ccc21` (centres undefined), the RP-LC retention time is 809 s.

Turning to `Cc1ccc(N2C(=O)C3N=NN(Cc4nc(-c5ccccc5Cl)no4)C3C2=O)cc1` (centres undefined), the RP-LC retention time came out at 996 s.

The compound `CCCCn1c(CNC(=O)c2cccs2)nnc1SCC(=O)OCC` displayed an RP-LC retention time of 713 s.

`Cc1ccc(CNC(=O)Cn2cnc3nc(N4CCCC(C(=O)NC5CC5)C4)sc3c2=O)cc1` (centres undefined) came in with an RP-LC retention time of 743 s.

Compound `O=C(CN1CCN(C(=O)Nc2ccc(Cl)cc2)CC1=O)N1CCN(c2ccc(F)cc2)CC1` registered an RP-LC retention time of 766 s.

For the compound `CC1CCCCN1C(=O)Cn1c(=O)n(C2CCCCC2)c(=O)c2ccccc21` (centres undefined), the RP-LC retention time was determined as 1010 s.

`Cc1cc(N2CCCC2)nc(N2CCN(C(=O)c3ccc(C(C)(C)C)cc3)CC2)n1` displayed an RP-LC retention time of 813 s.

In turn, `CCCc1c(C(=O)O)nnn1Cc1ccccc1Cl` had an RP-LC retention time of 796 s.

With `FC(F)(F)c1cccc(-c2ccc(CNC3CC3)o2)c1`, the RP-LC retention time amounted to 695 s.

`Cc1ccc(C)c(CNC(=O)C2CCc3nc(N4CCOCC4)ncc3C2)c1` (centres undefined) came in with an RP-LC retention time of 888 s.

`CC(C)(C)c1ccc(O)c(CN(Cc2cc(C(C)(C)C)ccc2O)C2CCCCC2)c1`: the RP-LC retention time was determined as 1020 s.

Regarding `COCCN1CCC(N2CCN(C(=O)c3ccsc3)CC2)C1=O` (centres undefined), the RP-LC retention time stood at 515 s.

For `CCCn1ccc2sc(C)c(C(=O)NCc3cccc(C)c3)c2c1=O`, the RP-LC retention time amounted to 948 s.

With `COC(=O)c1ccc(NC(=O)C2CCN(c3cc(N4CCCCC4)ncn3)CC2)cc1`, the RP-LC retention time is 715 s.

Compound `Cc1ccc(C(=O)N2CCC(c3nc(C4CC4)n[nH]3)CC2)s1` displayed an RP-LC retention time of 600 s.

The compound `CCCc1cc(N2CCN(c3ccccn3)CC2)n2ncc(-c3ccccc3)c2n1` came in with an RP-LC retention time of 886 s.

`CC(C)C(NC(=O)c1ccsc1)C(=O)Nc1nc2ccccc2[nH]1` (centres undefined): the RP-LC retention time was determined as 666 s.

For `COc1ccccc1-c1noc(C2CCCN2C(=O)c2cccc(F)c2)n1` (centres undefined), the RP-LC retention time was determined as 856 s.

In turn, `COC(=O)c1ccc(-c2nc3cnccn3c2Nc2c(C)cccc2C)cc1` came in with an RP-LC retention time of 914 s.

These data come from the METLIN SMRT retention time set (Domingo-Almenara et al. 2019).
